Data published in US9597407B2, “Targeted antimicrobial moieties” (C3 Jian, Inc., priority 2009, dated 2017).
Entries after “also recorded” stand apart in the source; their conditions may differ. Ends that are not written are not given here.

Columns and labels:
bacteria = test: Binding of targeting peptides to microorganisms (Table 3); details: for Target(s) (microorganism bound by the targeting peptide) / Target(s) / Target(s) (microorganisms bound by the targeting peptide): preferably 1x PBS
microorganisms = test: Morphology, biofilm and growth disruption by peptides (Table 5); assay type: cell-based; design: key: A: Peptide aggregates; B: Less hyphal formation; Clumps; Diffuse clumps and small polyps; F: Diffuse growth; H: Thin; I: Growth inhibition; Microcolony formation; Rippled; Small polyps; Thick; W: Halo formation on top, microlonies on bottom
Excerpt: In certain embodiments peptides that induce alterations in phenotype or other biological activities can also be used as antimicrobial effector moieties.

[1] = peptide binding in aqueous buffers that varied depending on peptide solubility
[2] = microorganism bound by the targeting peptide, binding in aqueous buffers chosen by peptide solubility
[3] = peptide binding in aqueous buffers varied by peptide solubility
[4] = microorganism the targeting peptide binds, binding in aqueous buffers that varied with peptide solubility

## PF-800 (WYYFDNNGYM; Peptide with targeting and/or antimicrobial activity)
bacteria; [1]
  Target(s) (microorganism bound by the targeting peptide): S. mutans

## PF-247 (ETAASETH; Peptide with targeting and/or antimicrobial activity)
bacteria; [2]
  Target(s): S. epidermidis

## 1T-185 (HYHFLLEFGFHKGDYLE; Peptide with targeting and/or antimicrobial activity) [Peptide 1T-185]
bacteria; [3]
  Target(s) (microorganism bound by the targeting peptide): A. naeslundii; also recorded: F. nucleatum; also recorded: P. gingivalis

## 1T-12 (FGNIFKGLKDVIETIVKWTAAK; Peptide with targeting and/or antimicrobial activity) [Peptide 1T-12]
bacteria; [3]
  Target(s) (microorganism bound by the targeting peptide): C. xerosis; also recorded: C. striatum; also recorded: S. epidermidis; also recorded: S. mutans

## PF-486 (MQKEGEEDY; Peptide with targeting and/or antimicrobial activity)
bacteria; [1]
  Target(s) (microorganisms bound by the targeting peptide): S. mutans

## 1T-252 (MKKNLKRFYALVLGFIIGCLFVSILIFIGY; Peptide with targeting and/or antimicrobial activity) [Peptide 1T-252]
bacteria; [4]
  Target(s): F. nucleatum; also recorded: S. sanguinis

## PF-246 (QPDEKAEFFDPSLDKVYRHPTFYHIPDGIEHM; Peptide with targeting and/or antimicrobial activity)
bacteria; [2]
  Target(s): S. mutans

## PF-481 (DELYEIMDKVIEEFNKDIEQNNNNGNNEDLTENKIN; Peptide with targeting and/or antimicrobial activity)
bacteria; [1]
  Target(s) (microorganisms bound by the targeting peptide): C. jeikeium

## PF-201 (GCRPASLSDADPDGR; Peptide with targeting and/or antimicrobial activity)
bacteria; [2]
  Target(s): S. epidermidis; also recorded: M. luteus; also recorded: E. coli; also recorded: C. albicans; also recorded: E. faecalis; also recorded: C. jeikeium; also recorded: C. jejuni

## PF-014 (HPTDNKHN; Peptide with targeting and/or antimicrobial activity)
bacteria; [4]
  Target(s): E. coli; also recorded: C. jeikeium

## PF-231 (AVRDFKKSVREEDEAASLNSPRTIDAQVKTSESTSVKS; Peptide with targeting and/or antimicrobial activity)
bacteria; [2]
  Target(s): S. mutans

## 1T-22 (VPLDDGTRRPEVARNRDKDRED; Peptide with targeting and/or antimicrobial activity) [Peptide 1T-22]
bacteria; [3]
  Target(s) (microorganism bound by the targeting peptide): S. epidermidis; also recorded: P. aeruginosa

## PF-230 (EDKPTNTIQEIKPVKWQ; Peptide with targeting and/or antimicrobial activity)
bacteria; [2]
  Target(s): S. mutans

## PF-784 (MAMTTVDNIVGLVIAVALMAFLFAALLFPEKF; Peptide with targeting and/or antimicrobial activity)
bacteria; [1]
  Target(s) (microorganism bound by the targeting peptide): Mycobacteria spp.

## DAANEA-GGG [BL-1]
bacteria; data not shown
  bacterial binding: no bacterial binding

## 1T-79 (FGTPWSITNFWKKNFNDRPDFDSDRRRY; Peptide with targeting and/or antimicrobial activity) [Peptide 1T-79]
bacteria; [3]
  Target(s) (microorganism bound by the targeting peptide): S. pneumoniae

## PF-C080 (INIPGLF; Peptide with targeting and/or antimicrobial activity)
bacteria; [1]
  Target(s) (microorganism bound by the targeting peptide): A. naeslundii; also recorded: F. nucleatum; also recorded: S. mutans

## TT-309 (EPLPLTKYDKKDTEMKKVFKEILAGKVGYEKEEE; Peptide with targeting and/or antimicrobial activity)
bacteria; [4]
  Target(s): F. nucleatum

## PF-238 (RNAVVVTEATFPKYEEEITNYLNRRFGEDWSLKLEKCSVA; Peptide with targeting and/or antimicrobial activity)
bacteria; [2]
  Target(s): S. mutans and S. epidermidis and E. coli and P. aeruginosa and C. albicans and MRSA and S. pneumoniae and E. faecalis

## PF-C034 (HPMPITVRSRKPGPLTAPSEH; Peptide with targeting and/or antimicrobial activity)
bacteria; [1]
  Target(s) (microorganism bound by the targeting peptide): S. mutans; also recorded: E. coli

## 1T-76 (EMRLSKFFRDFILWRKK; Peptide with targeting and/or antimicrobial activity) [Peptide 1T-76]
bacteria; [3]
  Target(s) (microorganism bound by the targeting peptide): S. pneumoniae

## 1T-301 (SKLPRVLDASLKL; Peptide with targeting and/or antimicrobial activity) [Peptide 1T-301]
bacteria; [4]
  Target(s): F. nucleatum; also recorded: S. gordonii; also recorded: S. sanguinis

## PF-799 (YTHYNTALSYALLLTNKSSVP; Peptide with targeting and/or antimicrobial activity)
bacteria; [1]
  Target(s) (microorganism bound by the targeting peptide): S. mutans

## 1T-100 (LDPLEPRIAPPGDRSHQGAPACHRDPLRGRSARDAER; Peptide with targeting and/or antimicrobial activity) [Peptide 1T-100]
bacteria; [3]
  Target(s) (microorganism bound by the targeting peptide): S. gordonii; also recorded: S. mitis; also recorded: S. mutans

## 1T-270 (VHEFDIQKILQNR; Peptide with targeting and/or antimicrobial activity) [Peptide 1T-270]
bacteria; [4]
  Target(s): F. nucleatum; also recorded: S. mutans; also recorded: S. oralis; also recorded: S. sanguinis

## PF-352 (RVKKIG; Peptide with targeting and/or antimicrobial activity)
bacteria; [2]
  Target(s): C. jeikeium

## PF-097 (QPTQGEQGTRPRRPTPMRGLLI; Peptide with targeting and/or antimicrobial activity)
bacteria; [2]
  Target(s): C. jeikeium

## PF-361 (NQVTEGIRLLVE; Peptide with targeting and/or antimicrobial activity)
bacteria; [2]
  Target(s): S. epidermidis; also recorded: E. coli; also recorded: E. faecalis; also recorded: C. jejuni

## PF-219 (FLALAVIAGLFKVILIYAAPYLK; Peptide with targeting and/or antimicrobial activity)
bacteria; [2]
  Target(s): S. epidermidis; also recorded: M. luteus; also recorded: P. aeruginosa; also recorded: A. baumannii

## PF-724 (CYRFLTPKRPTRIS; Peptide with targeting and/or antimicrobial activity)
bacteria; [1]
  Target(s) (microorganism bound by the targeting peptide): L. pneumophila

## PF-641 (SWKCHHLAIGGSWKCHHLAI; Peptide with targeting and/or antimicrobial activity)
bacteria; [1]
  Target(s) (microorganism bound by the targeting peptide): S. epidermidis and M. luteus and E. coli and C. albicans and MRSA and E. faecalis and C. jeikeium and C. jejuni

## HIKETR (Peptide with targeting and/or antimicrobial activity) [PF-222]
bacteria; [2]
  Target(s): S. epidermidis

## 1T-201 (KRKHENVIVAEEMRVIKN; Peptide with targeting and/or antimicrobial activity) [Peptide 1T-201]
bacteria; [4]
  Target(s): S. sanguinis

## PF-536 (MEPIPHIMIIANQIGIIIEKA; Peptide with targeting and/or antimicrobial activity)
microorganisms; E. coli
  Organism, effect (morphology, biofilm and growth disruption): E. coli (R)
microorganisms; E. faecalis
  Organism, effect (morphology, biofilm and growth disruption): E. faecalis (C)
microorganisms; MRSA
  Organism, effect (morphology, biofilm and growth disruption): MRSA (C)
microorganisms; P. aeruginosa
  Organism, effect (morphology, biofilm and growth disruption): P. aeruginosa (H)
microorganisms; S. epidermidis
  Organism, effect (morphology, biofilm and growth disruption): S. epidermidis (C)
microorganisms; S. pneumoniae
  Organism, effect (morphology, biofilm and growth disruption): S. pneumoniae (M)

## PF-574 (LVKSGKLESPYEHSEHLTLSQEKGLE; Peptide with targeting and/or antimicrobial activity)
microorganisms; B. subtilis
  Organism, effect (morphology, biofilm and growth disruption): B. subtilis (D)

## PF-534 (KYFHLFYHNIIHYSKQHLSLKVDFKN-NH2)
microorganisms; E. coli
  Organism, effect (morphology, biofilm and growth disruption): E. coli (R)
microorganisms; E. faecalis
  Organism, effect (morphology, biofilm and growth disruption): E. faecalis (C)
microorganisms; MRSA
  Organism, effect (morphology, biofilm and growth disruption): MRSA (C)
microorganisms; S. epidermidis
  Organism, effect (morphology, biofilm and growth disruption): S. epidermidis (C)
microorganisms; S. pneumoniae
  Organism, effect (morphology, biofilm and growth disruption): S. pneumoniae (R)

## PF-203 (SWKCHHLAI; Peptide with targeting and/or antimicrobial activity)
microorganisms; C. jeikeium
  Organism, effect: C. jeikeium (R)
microorganisms; S. epidermidis
  Organism, effect: S. epidermidis (A)

## FQKPFTGEEVEDFQDDDEIPTII [PF-437]
microorganisms; S. pneumoniae
  Organism, effect (morphology, biofilm and growth disruption): S. pneumoniae (I)

## PF-220 (VDPADDGTRHIRPEDGDPIEIDE; Peptide with targeting and/or antimicrobial activity)
microorganisms; S. pneumoniae
  Organism, effect: S. pneumoniae (H)

## KTPNDKIHKTIIIKHIIL [PF-533]
microorganisms; E. coli
  Organism, effect (morphology, biofilm and growth disruption): E. coli (R)
microorganisms; E. faecalis
  Organism, effect (morphology, biofilm and growth disruption): E. faecalis (C)
microorganisms; MRSA
  Organism, effect (morphology, biofilm and growth disruption): MRSA (H)
microorganisms; S. epidermidis
  Organism, effect (morphology, biofilm and growth disruption): S. epidermidis (H)
microorganisms; S. pneumoniae
  Organism, effect (morphology, biofilm and growth disruption): S. pneumoniae (C)

## PF-449 (MPTTKSKQKGWTNTKKASNTQ; Peptide with targeting and/or antimicrobial activity)
microorganisms; S. pneumoniae
  Organism, effect (morphology, biofilm and growth disruption): S. pneumoniae (H)

## PF-581 (WTARARR; Peptide with targeting and/or antimicrobial activity)
microorganisms; C. jejuni
  Organism, effect (morphology, biofilm and growth disruption): C. jejuni (A)
microorganisms; E. faecalis
  Organism, effect (morphology, biofilm and growth disruption): E. faecalis (A)
microorganisms; MRSA
  Organism, effect (morphology, biofilm and growth disruption): MRSA (A)
microorganisms; S. pneumoniae
  Organism, effect (morphology, biofilm and growth disruption): S. pneumoniae (A)

## PF-067 (DLIVKVHICFVVKTASGYCYLNKREAQAAI; Peptide with targeting and/or antimicrobial activity)
microorganisms; B. subtilis
  Organism, effect: B. subtilis (C)
microorganisms; C. jeikeium
  Organism, effect: C. jeikeium (D)
microorganisms; C. jejuni
  Organism, effect: C. jejuni (D)
microorganisms; M. luteus
  Organism, effect: M. luteus (R)
microorganisms; MRSA
  Organism, effect: MRSA (M)
microorganisms; P. aeruginosa
  Organism, effect: P. aeruginosa (A)
microorganisms; S. epidermidis
  Organism, effect: S. epidermidis (D)
microorganisms; S. pneumoniae
  Organism, effect: S. pneumoniae (D)

## PF-670 (chain 1 TVIVAPMHSGV; chain 2 TVIVAPMHSGV; Peptide with targeting and/or antimicrobial activity)
microorganisms; B. subtilis
  Organism, effect (morphology, biofilm and growth disruption): B. subtilis (H)
microorganisms; S. pneumoniae
  Organism, effect (morphology, biofilm and growth disruption): S. pneumoniae (H)
